pIC50, pKd: −log10 of the molar value. Numbered stars: 1 amine (or outer) side, 2 acyl side, 3 side chain; on linkers, the order of the positions; unused ones are H or OH. Bridge positions count the residues as written; N and C are the ends. Square brackets hold non-standard residues; d marks the D form. Peptide text beside a SMILES is read from it. * marks the point of attachment. Trp(βS-Me,7-OMe) = COc1cccc2c([C@H](C)[C@H](N)C(=O)O)c[nH]c12; X44 = NC(=O)c1ccc([C@@H](O)[C@H](N[*:1])C(=O)[*:2])cc1; Phe(4-SO2NH2) = N[C@@H](Cc1ccc(S(N)(=O)=O)cc1)C(=O)O; dPro(trans-4-NMe2) = CN(C)[C@@H]1CN[C@@H](C(=O)O)C1; Ala(indazol-1-yl) = N[C@@H](Cn1ncc2ccccc21)C(=O)O; Trp(7-CN) = N#Cc1cccc2c(C[C@H](N)C(=O)O)c[nH]c12; Trp(7-Cl) = N[C@@H](Cc1c[nH]c2c(Cl)cccc12)C(=O)O; Phe(4-COOH) = N[C@@H](Cc1ccc(C(=O)O)cc1)C(=O)O; Trp(7-aza) = N[C@@H](Cc1c[nH]c2ncccc12)C(=O)O; Phe(4-CH2NH2) = NCc1ccc(C[C@H](N)C(=O)O)cc1; Pip(5R-OH) = O=C(O)[C@@H]1CC[C@@H](O)CN1; X1 = O=C([C@@H]1CC[C@H](N[*:1])C1)[*:2]; Pip(4-aza) = O=C(O)[C@@H]1CNCCN1; 4Pal = N[C@@H](Cc1ccncc1)C(=O)O; NMeE = CN[C@@H](CCC(=O)O)C(=O)O; dHyp = O=C(O)[C@H]1C[C@H](O)CN1; αMeS = C[C@](N)(CO)C(=O)O; Carboxymethyl = O=C(O)C*; Nle = CCCC[C@H](N)C(=O)O; Nme = COCCNCC(=O)O; Sar = CNCC(=O)O
Tests used:
[1] = molecular target: T1, human TNFR1 extracellular domain (ECD) protein (Homo sapiens, UniProt P19438); assay: SPR binding affinity to captured human TNFR1 ECD
T1 construct: HRV 3C protease cleavage site (C); 6His (C, cleaved yes); made in house; host or cells: Sf21 insect cells (baculovirus), secreted
T1 sequence (P19438 30-211): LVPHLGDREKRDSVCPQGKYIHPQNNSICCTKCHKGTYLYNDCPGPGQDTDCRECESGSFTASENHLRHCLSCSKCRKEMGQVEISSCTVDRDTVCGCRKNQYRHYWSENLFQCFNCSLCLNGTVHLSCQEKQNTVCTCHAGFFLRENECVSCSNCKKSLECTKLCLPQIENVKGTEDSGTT
Method: (§1) B. Procedure for Binding Affinity and Selectivity measured by SPR
(§2) Affinity and selectivity for hTNFR1 and TNFR2 was determined using SPR. Human TNFR1 or TNFR2 genes (extracellular domain only) were synthesized with a C-terminal Avi-tag, HRV 3C protease cleavage site followed by a 6His-tag for affinity purification. The final gene product was cloned into pBAC™-1 vector (Millipore Sigma) for expression testing in insect cells. Constructs were transfected into Sf21 cells for baculovirus generation followed by protein expression analysis in Sf21 and Tni cell lines. Large scale expression in Sf21 cells was performed using baculovirus infected insect cells (BIICs) infected at a MOI=2.0 grown for 72 h. Target proteins secreted into the media were harvested via centrifugation and concentrated using diafiltration. TNFR was purified by immobilized metal ion affinity chromatography (IMAC) using a Ni-Sepharose HisTrap™ column (Cytiva™). Isolated TNFR had His tag removed using HRV 3C protease followed by additional purification using Ni-NTA chromatography. Biotinylation was performed on Ni-NTA flow-through fractions concentrated to 45 μM and treated with BirA ligase (1:100, μg/μg ratio) in 50 mM Tris pH 7.5, 150 mM NaCl, 50 μM biotin, 10 mM magnesium acetate, 10 mM ATP at 4° C. for 20 h. Final purification of biotin-TNFR and buffer exchange into 20 mM HEPES pH 7.5, 150 mM NaCl was performed using a HiLoad® Superdex® 200 26/60 column (Cytiva™). Highly purified protein was aliquoted and stored at −80° C.
(§3) The SPR assay uses a Cytiva™ 8K or 8K+ biosensor instrument to measure the kinetics of peptide analytes binding to captured human TNFR1 extracellular domain (ECD) protein; peptide analytes are also evaluated for any off-target binding to human TNFR2 ECD protein in parallel. Recombinant human TNFR1 ECD and human TNFR2 ECD proteins, biotinylated via engineered C-terminal avi-tags, are immobilized to a regenerable streptavidin biosensor chip surface (Cytiva™ Biotin CAPture kit, Series S; cat. #28920234). Peptide analytes binding to immobilized human TNFR1 ECD protein and their subsequent dissociation are conducted in a buffer of 10 mM HEPES pH 7.4, 150 mM NaCl, 3 mM EDTA, 0.05% P20,2% DMSO under laminar flow conditions and measured in response units (RU), which are directly proportional to the accumulated mass on the surface of the biosensor chip; the biosensor chip surface is regenerated via Cytiva™ proprietary methods between the evaluation of each peptide analyte. […] The SPR assay determines the association and dissociation rate constants, kon and koff, for each peptide analyte and, from these values, calculates the binding affinity, […] reported in Table 2.

human TNFR2 ECD protein = molecular target: T2, human TNFR2 ECD protein (Homo sapiens, UniProt P20333); assay: SPR off-target binding (selectivity) to human TNFR2 ECD
T2 construct: HRV 3C protease cleavage site (C); 6His (C, cleaved yes); made in house; host or cells: Sf21 insect cells (baculovirus), secreted
T2 sequence (P20333 23-257): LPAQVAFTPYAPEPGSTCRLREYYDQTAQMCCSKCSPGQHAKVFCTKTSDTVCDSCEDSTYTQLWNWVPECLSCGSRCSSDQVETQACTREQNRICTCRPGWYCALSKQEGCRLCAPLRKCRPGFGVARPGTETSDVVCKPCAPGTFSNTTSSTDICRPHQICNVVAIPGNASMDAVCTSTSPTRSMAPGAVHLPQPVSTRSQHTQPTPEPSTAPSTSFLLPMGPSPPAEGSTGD
Method: as §1, §2, §3

[2] = molecular target: T3, TNFα-induced NF-κB signal transduction pathway (TNFR1 signaling) in THP-1 cells (Homo sapiens, UniProt P19438); assay: THP-1 Lucia NF-κB reporter cell assay, inhibition of TNFα-induced NF-κB signaling; assay type: cell-based; details: THP-1 NF-κB Lucia reporter cells, 10 ng/mL TNFα, 16-18 h, secreted luciferase; read-out: THP-1 IC50
T3 sequence (P19438 30-455): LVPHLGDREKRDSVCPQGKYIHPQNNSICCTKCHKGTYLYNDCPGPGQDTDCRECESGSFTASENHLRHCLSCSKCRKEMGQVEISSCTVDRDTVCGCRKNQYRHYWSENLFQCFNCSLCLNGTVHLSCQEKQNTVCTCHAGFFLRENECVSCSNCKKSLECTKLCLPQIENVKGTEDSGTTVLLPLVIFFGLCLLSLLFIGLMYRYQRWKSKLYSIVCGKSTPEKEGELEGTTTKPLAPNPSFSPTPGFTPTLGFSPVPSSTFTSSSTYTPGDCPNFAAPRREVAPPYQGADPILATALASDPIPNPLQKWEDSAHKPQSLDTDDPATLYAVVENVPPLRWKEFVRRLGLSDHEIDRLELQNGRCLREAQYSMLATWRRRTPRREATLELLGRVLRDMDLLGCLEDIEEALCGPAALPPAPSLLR
Method in brief: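 Inhibition of TNFR1-driven NF-κB activation was measured as luminescence of secreted reporter luciferase following overnight (16-18 h) stimulation with 10 ng/mL TNFα.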

[3] = molecular target: T4, human soluble TNFR1 (sTNFR1) (Homo sapiens, UniProt P19438); assay: Human sTNFR1-peptide displacement assay (LanthaScreen Eu TR-FRET binding assay)
T4 construct: made in house; host or cells: Sf21 (baculovirus)
T4 sequence (P19438 with tags, fused parts or gaps): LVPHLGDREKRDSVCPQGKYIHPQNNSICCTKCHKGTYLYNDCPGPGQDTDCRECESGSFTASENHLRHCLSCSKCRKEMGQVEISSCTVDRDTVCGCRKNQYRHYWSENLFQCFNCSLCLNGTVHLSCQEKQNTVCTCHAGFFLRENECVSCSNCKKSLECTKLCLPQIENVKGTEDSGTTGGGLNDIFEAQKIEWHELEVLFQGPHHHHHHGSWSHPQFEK
Method in brief: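 Readout is the 665/615 nm TR-FRET ratio (Eu anti-His donor, streptavidin-Alexa647 acceptor), normalized to DMSO and saturating displacer, fit by Morrison-based five-parameter logistic for Kd^app. His-tagged sTNFR1 (1-211) prebound to 100 nM biotinylated peptide SEQ ID NO.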

Row | Compound | pKd [1] | pKd (human TNFR2 ECD protein) | pIC50 [2] | pKd [3]
1 | CCCC[C@@H]1NC(=O)[C@@H]2CC[C@@H](C2)NC(=O)[C@H]([C@@H](C)c2c[nH]c3c(OC)cccc23)NC(=O)CN(C)C(=O)[C@H](Cc2ccc(O)cc2)NC(=O)[C@H](Cc2ccc(C(=O)O)cc2)NC(=O)[C@](C)(CO)NC(=O)[C@H](Cc2c[nH]c3c(Cl)cccc23)NC(=O)[C@H](Cc2ccncc2)NC(=O)[C@H](CC(N)=O)NC(=O)CN(CCOC)C(=O)[C@H](Cc2c[nH]c3ccccc23)NC(=O)[C@@H]2CNCCN2C(=O)[C@H](Cc2ccncc2)NC1=O [SEQ ID NO. 82] (cyclo([4Pal][Trp(7-Cl)][αMeS][Phe(4-COOH)]Y[Sar][Trp(βS-Me,7-OMe)][X1][Nle][4Pal][Pip(4-aza)]W[Nme]N)) | 10.15 | < 6.00 | – | –
2 | CCCC[C@@H]1NC(=O)CSC[C@@H](C(N)=O)NC(=O)[C@H]([C@@H](C)c2c[nH]c3c(OC)cccc23)NC(=O)CN(C)C(=O)[C@H](Cc2ccc(O)cc2)NC(=O)[C@H](Cc2ccc(C(=O)O)cc2)NC(=O)[C@](C)(CO)NC(=O)[C@H](Cc2c[nH]c3c(Cl)cccc23)NC(=O)[C@H](Cc2ccc(CN)cc2)NC(=O)[C@H](CC(N)=O)NC(=O)[C@H](CCC(=O)O)N(C)C(=O)[C@H](Cc2c[nH]c3ccccc23)NC(=O)[C@@H]2CC[C@@H](O)CN2C(=O)[C@H](Cc2ccncc2)NC1=O [SEQ ID NO. 96] ({CH2CO}-[Nle][4Pal][Pip(5R-OH)]W[NMeE]N[Phe(4-CH2NH2)][Trp(7-Cl)][αMeS][Phe(4-COOH)]Y[Sar][Trp(βS-Me,7-OMe)]C-NH2; thioether N-14) | – | < 6.00 | 8.80 | –
3 | CCCC[C@@H]1NC(=O)[C@@H]2CC[C@@H](C2)NC(=O)[C@H]([C@@H](C)c2c[nH]c3c(OC)cccc23)NC(=O)CN(C)C(=O)[C@H](Cc2ccc(OCC(=O)O)cc2)NC(=O)[C@H](Cc2ccc(S(N)(=O)=O)cc2)NC(=O)[C@](C)(CO)NC(=O)[C@H](Cc2c[nH]c3c(C#N)cccc23)NC(=O)[C@H](Cc2ccc(OCC(=O)O)cc2)NC(=O)[C@H](CC(N)=O)NC(=O)[C@H]2C[C@H](O)CN2C(=O)[C@H](Cn2ncc3ccccc32)NC(=O)[C@@H]2CC[C@@H](O)CN2C(=O)[C@H](Cc2ccncc2)NC1=O [SEQ ID NO. 286] (cyclo([4Pal][Pip(5R-OH)][Ala(indazol-1-yl)][dHyp]NY(Carboxymethyl)[Trp(7-CN)][αMeS][Phe(4-SO2NH2)]Y(Carboxymethyl)[Sar][Trp(βS-Me,7-OMe)][X1][Nle])) | – | – | 9.40 | 10.30
4 | CCCC[C@@H]1NC(=O)[C@@H]2CC[C@@H](C2)NC(=O)[C@H]([C@@H](C)c2c[nH]c3c(OC)cccc23)NC(=O)CN(C)C(=O)[C@H]([C@H](O)c2ccc(C(N)=O)cc2)NC(=O)[C@H](Cc2ccc(C(=O)O)cc2)NC(=O)[C@](C)(CO)NC(=O)[C@H](Cc2c[nH]c3c(C#N)cccc23)NC(=O)[C@H](Cc2ccc(C(=O)O)cc2)NC(=O)[C@H](CC(N)=O)NC(=O)[C@H]2C[C@H](N(C)C)CN2C(=O)[C@H](Cc2c[nH]c3ncccc23)NC(=O)[C@@H]2CNCCN2C(=O)[C@H](Cc2ccncc2)NC1=O [SEQ ID NO. 287] (cyclo([4Pal][Pip(4-aza)][Trp(7-aza)][dPro(trans-4-NMe2)]N[Phe(4-COOH)][Trp(7-CN)][αMeS][Phe(4-COOH)][X44][Sar][Trp(βS-Me,7-OMe)][X1][Nle])) | – | – | 8.77 | 9.66
